Measured values reported in patent EP4342530A1, “SORTILIN MODULATORS” (Insusense ApS, priority 2022, dated 2024).
Where “and” joins values, the source holds several entries; their conditions need not be identical. Equal entries are not always repeated.

Tests used:
in vitro [1] = assay type: in vitro ADME; details: mouse, brain homogenate, pH 7.4
Method: (§1) Plasma protein binding and brain homogenate binding for study compounds in mouse, dog, and rat by rapid equilibrium dialysis
(§2) In practice, unbound fractions in plasma and brain tissue were assessed using rapid equilibrium dialysis in vitro. Separately a pharmacokinetic study was run in vivo whereby a dose of the compound of interest was given at T=0 hours and at subsequent timepoints (eg 0.5, 1 and 4 hours) plasma and separately brain samples were analysed for total concentration of the compound of interest. These total concentrations could then be adjusted with the unbound fraction to give the unbound concentrations in the plasma and brain.
(§3) The test compounds were incubated in plasma and brain homogenate from the relevant species at 37 °C in RED device with inserts (8K MWCO, Thermo scientific) for 4 hours at 5 µM in triplicates. 350 µL of 150 mM phosphate buffered saline (PBS, pH 7.4) was used as the receiver side solutions. […] After 10-minute centrifugation at 13 200 rpm, the sample supernatants were analysed with an LC-MS/MS, to obtain the unbound fraction of the test compound (Fub). The unbound fraction was calculated from the peak area ratios obtained for each matrix: Fub = CPBS /Cplasma; [formula] where CPBS and Cplasma are the analyte concentrations in PBS (receiver) and plasma (donor), respectively. […]

in vitro [2] = assay type: in vitro ADME; details: mouse, plasma, pH 7.4
Method: as §1, §2, §3

[3] = Blood-brain-barrier permeability in mice after IV administration; details: 3 mg/kg intravenously, 0.5 hours after dosing
Method: (§18) The compound is administered to the animal in a suitable vehicle at T=0 hours. At 0.5 hours post administration plasma and separately brain are removed, prepared and analysed for total compound concentration.
(§19) Temperature: 45 °C Injection Volume: 1.5 µl for brain, 4 µl for plasma Ion Source: ESI+, SRM detection
(§20) The unbound partition coefficient (Kpuu) was determined as a ratio between the free compound concentrations in plasma and brain: Kpuu = (Cub,brain)/(Cub,plasma) [formula]
(§21) Where Cu,brain = unbound concentration in brain (C × Fub, brain); wherein • C = concentration at steady state; and • Cub,plasma = unbound concentration in plasma (C × Fub).

in vivo = details: male, CD1 (ICR), mouse
Method: as §18, §19, §20, §21

h-Sortilin = biological target: T1, h-Sortilin (Homo sapiens, UniProt Q99523); assay: Neurotensin scintillation proximity assay (displacement of [3H]-neurotensin binding); details: 150 nM 6his-Sortilin, 5 nM [3H]-Neurotensin; average of at least 2 determinations; read-out: IC50 [3H]Neurotensin SPA
T1 sequence (Q99523 78-831): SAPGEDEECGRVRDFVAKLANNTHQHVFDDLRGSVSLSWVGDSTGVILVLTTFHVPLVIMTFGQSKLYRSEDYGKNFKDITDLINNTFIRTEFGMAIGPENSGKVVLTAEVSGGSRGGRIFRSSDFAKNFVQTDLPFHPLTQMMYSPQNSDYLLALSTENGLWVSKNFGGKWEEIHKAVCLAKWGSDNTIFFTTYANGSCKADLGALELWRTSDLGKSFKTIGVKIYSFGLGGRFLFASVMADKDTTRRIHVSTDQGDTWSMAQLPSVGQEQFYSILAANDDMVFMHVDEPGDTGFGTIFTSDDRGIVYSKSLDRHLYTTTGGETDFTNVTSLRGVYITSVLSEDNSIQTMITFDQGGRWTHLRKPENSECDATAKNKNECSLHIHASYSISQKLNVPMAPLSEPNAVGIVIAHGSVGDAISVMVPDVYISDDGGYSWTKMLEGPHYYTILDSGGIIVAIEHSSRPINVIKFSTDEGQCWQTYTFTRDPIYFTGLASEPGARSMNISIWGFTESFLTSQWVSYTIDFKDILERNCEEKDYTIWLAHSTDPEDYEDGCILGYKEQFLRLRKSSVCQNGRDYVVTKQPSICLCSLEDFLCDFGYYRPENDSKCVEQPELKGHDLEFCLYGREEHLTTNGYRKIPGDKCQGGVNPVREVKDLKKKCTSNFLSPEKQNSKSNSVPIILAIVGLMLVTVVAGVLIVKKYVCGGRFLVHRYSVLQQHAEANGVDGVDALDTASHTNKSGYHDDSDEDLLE
How it was run: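 Compounds pre-incubated 30 min at room temperature with 150 nM 6His-sortilin in HEPES pH 7.4 buffer with NaCl, CaCl2, BSA and Tween-20, then 5 nM [3H]-neurotensin and Ni chelate SPA beads added; read after 6 h. IC50 from 8-point variable-slope fits, mean of at least 2 determinations.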

Sortilin [4] = biological target: T2, Sortilin (Homo sapiens, UniProt Q99523); assay: Creoptix (GCI) binding kinetics, human Sortilin; details: Species Human, screened at 1 µM, 25 degrees Celsius
T2 construct: purchased Bio-Techne Ltd 3154-ST-050
T2 sequence (Q99523 78-755 limits assumed): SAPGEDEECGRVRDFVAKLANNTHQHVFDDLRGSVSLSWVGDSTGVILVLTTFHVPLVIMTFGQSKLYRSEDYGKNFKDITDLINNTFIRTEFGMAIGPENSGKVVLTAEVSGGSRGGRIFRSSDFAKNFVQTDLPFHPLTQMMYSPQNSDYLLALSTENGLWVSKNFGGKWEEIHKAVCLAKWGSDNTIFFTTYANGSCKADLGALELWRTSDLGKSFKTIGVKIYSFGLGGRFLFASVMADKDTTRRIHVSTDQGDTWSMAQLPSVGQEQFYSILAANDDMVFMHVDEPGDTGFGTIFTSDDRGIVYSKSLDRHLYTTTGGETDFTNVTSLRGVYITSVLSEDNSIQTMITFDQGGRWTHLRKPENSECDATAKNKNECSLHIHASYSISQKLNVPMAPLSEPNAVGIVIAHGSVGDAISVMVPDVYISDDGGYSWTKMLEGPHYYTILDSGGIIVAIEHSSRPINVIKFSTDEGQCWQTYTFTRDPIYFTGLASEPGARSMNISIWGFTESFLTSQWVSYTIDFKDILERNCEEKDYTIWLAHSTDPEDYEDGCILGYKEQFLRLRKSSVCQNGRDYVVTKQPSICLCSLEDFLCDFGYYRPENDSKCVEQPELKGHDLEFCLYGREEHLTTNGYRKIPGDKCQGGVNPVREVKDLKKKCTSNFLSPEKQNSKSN
Method: (§4) Creoptix (GCI) method - using SEQ ID NO.4 (Murine sortillin)
(§5) A protein, bound to a surface, is bathed in a solution containing potential ligands giving rise to binding kinetics to generate Kon and Koff rates, as well as a Kd.
(§6) All buffers described were filtered using a 0.2µm filter (Product number: 10300461, Nalgene) and degassed for 15 minutes prior to use.
(§7) A flow cell temperature of 25 degrees Celsius was used throughout the experiment.
(§8) A 4PCH chip was conditioned across all flow cells using 0.2 X concentration running buffer (running buffer composition: 1XHBS-N, pH 7.4, 3.4 mM EDTA, 1% DMSO) using pre-set conditioning wizard (WAVE control software) injecting: 0.1 M borate, 1 M NaCl (pH 9) followed by three start-up injections of 0.2 X running buffer.
(§9) A buffer exchange was performed and 1x running buffer (1XHBS-N, pH 7.4, 3.4 mM EDTA, 1% DMSO) used during the immobilisation procedure: An initial injection of EDC/NHS (mixed in 1:1 ratio) was performed across all 4-flow cells to activate the surface for amine coupling of ligands.
(§10) Recombinant Sortilin aliquots were thawed quickly by hand and centrifuged at 13,300 rpm for 10 minutes. A 10 µg/ml protein solution was then made in pH 5.0 acetate and injected once for 20 minutes over flow-cells 2, 3 and 4 for human, human (flow cells 2 & 3), and mouse Sortilin respectively followed by a 60 second dissociation period.
(§11) A final 7-minute passivation injection of 50 mM tris was used across all flow cells.
(§12) A flow rate of 10 µl/min was used for all conditioning and immobilisation cycles.
(§13) Compounds were screened at 1 µM using the in-built 'intermediate binders' settings: 100 ul/min, 45 s baseline, 25 s association, 300 s dissociation, with blanks every 5th sample and a DMSO correction (1.5 % DMSO at the start and end of the experiment as well as every 20 cycles. An acquisition rate of 10 Hz was used throughout the experiment.
(§14) Compounds were screened at a final assay concentration of 1 µM and a final DMSO concentration was 1 %. To achieve this, compounds were diluted in DMSO from 10 mM stocks to 100 µM (100 x final assay concentration) then diluted 1:100 in running buffer which contained no DMSO to establish a final assay concentration of compound of 1 µM and a final DMSO concentration of 1 % [DMSO].
(§15) Compounds and DMSO were mixed by plate shaking at 1000 rpm for 60 seconds using a Bioshake instrument.
(§16) A flow rate of 100 µl/min was used throughout the experiment.
(§17) Data was evaluated using the RAPID kinetic analysis tool in the GCI WAVE_control software with data fitted using a standard 1:1 kinetic BioModel.

Sortilin [5] = biological target: T3, Sortilin (Mus musculus, UniProt Q6PHU5); assay: Creoptix (GCI) binding kinetics, mouse Sortilin; details: Species Mouse, screened at 1 µM, 25 degrees Celsius
T3 construct: purchased Bio-Techne Ltd 2934-ST-050
T3 sequence (Q6PHU5 76-753 limits assumed): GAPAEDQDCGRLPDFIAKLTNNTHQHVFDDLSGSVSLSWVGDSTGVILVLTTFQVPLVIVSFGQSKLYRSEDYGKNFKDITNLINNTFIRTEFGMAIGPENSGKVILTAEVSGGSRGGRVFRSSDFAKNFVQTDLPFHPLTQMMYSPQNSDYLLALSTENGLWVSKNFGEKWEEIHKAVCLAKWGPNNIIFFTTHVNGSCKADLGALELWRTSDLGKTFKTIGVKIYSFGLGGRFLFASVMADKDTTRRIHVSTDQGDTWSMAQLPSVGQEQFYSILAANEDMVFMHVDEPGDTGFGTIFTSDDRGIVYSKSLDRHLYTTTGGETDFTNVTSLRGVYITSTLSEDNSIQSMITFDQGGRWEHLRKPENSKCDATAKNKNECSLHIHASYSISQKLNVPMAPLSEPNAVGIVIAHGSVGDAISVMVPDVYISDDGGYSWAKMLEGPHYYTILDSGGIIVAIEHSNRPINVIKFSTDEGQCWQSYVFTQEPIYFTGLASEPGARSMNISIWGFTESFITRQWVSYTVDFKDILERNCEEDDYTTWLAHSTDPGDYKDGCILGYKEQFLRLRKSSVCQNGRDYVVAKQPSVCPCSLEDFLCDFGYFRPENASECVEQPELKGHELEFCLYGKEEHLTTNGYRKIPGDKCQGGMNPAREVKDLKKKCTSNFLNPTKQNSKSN
Method: as §4, §5, §6, §7, §8, §9, §10, §11, §12, §13, §14, §15, §16, §17

Cc1cccc(NC(=O)c2ccc(C(F)(F)F)cc2C(=O)O)n1 [Comparative Example 1]
fraction unbound at 4 h, 5 µM (in vitro [1]): 0.273 | fraction unbound at 4 h, 5 µM (in vitro [2]): 0.068 | Brain to plasma ratio % [3]: <1% | Kp uu at 0.5 h (in vivo): < 0.1 | Kp at 0.5 h (in vivo; 3 mg/kg): < 0.01 | concentration at 0.5 h (in vivo; 3 mg/kg): 3090 ng/mL and 5 ng/g

C[C@H](N[C@@H](CCC(C)(C)C)C(=O)O)c1ccc2c(c1)OCO2 [Example 70]
IC50 (h-Sortilin): 530 nM | Kd (Sortilin [4]; Form of Compound Free acid): 133 nM | Kd (Sortilin [5]; Form of Compound Free acid): 116 nM

C[C@H](N[C@@H](CCC(C)(C)C)C(=O)O)c1ccc2c(c1)CCOC2 [Example 59]
IC50 (h-Sortilin): 320 nM | Kd (Sortilin [4]; Form of Compound Mesylate salt): 218 nM | Kd (Sortilin [5]; Form of Compound Mesylate salt): 204 nM

CN1CCOc2ccc(CN[C@@H](CCC(C)(C)C)C(=O)O)cc21 [Example 30, (2S)-5,5-dimethyl-2-{[(4-methyl-3,4-dihydro-2H-1,4-benzoxazin-6-yl)methyl]amino}hexanoic acid]
IC50 (h-Sortilin): 350 nM | Kd (Sortilin [4]; Form of Compound Free acid): 5070 nM | Kd (Sortilin [5]; Form of Compound Free acid): 7600 nM
